Results on two compounds are retold here after patent US20230190852A1, “COMPOSITIONS AND METHODS FOR JOINT HEALTH” (Unigen, Inc., priority 2013, published 2023).

The target of one experiment is T1, BKB1 receptor (Homo sapiens, UniProt P46663).
T1 construct: Membranes from human IMR-90 lung fibroblasts, stimulated with IL-1β; endogenous in cells; host or cells: human IMR-90 lung fibroblasts, IL-1β stimulated (membranes)
T1 sequence (P46663 1-353): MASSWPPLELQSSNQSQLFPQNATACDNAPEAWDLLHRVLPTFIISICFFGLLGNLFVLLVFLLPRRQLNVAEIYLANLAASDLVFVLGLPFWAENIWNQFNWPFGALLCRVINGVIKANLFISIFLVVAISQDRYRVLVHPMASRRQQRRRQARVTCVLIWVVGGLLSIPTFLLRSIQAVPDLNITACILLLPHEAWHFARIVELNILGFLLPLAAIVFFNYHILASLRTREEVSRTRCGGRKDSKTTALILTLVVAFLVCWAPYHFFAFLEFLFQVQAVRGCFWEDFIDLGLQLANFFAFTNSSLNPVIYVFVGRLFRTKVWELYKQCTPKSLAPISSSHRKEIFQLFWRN
As to the kind of experiment: Bradykinin B1 (BKB1) radioligand binding assay. How it is done: Membranes from human IMR-90 lung fibroblasts, stimulated with IL-1β in modified HEPES buffer (PH=7.4), were incubated with a test sample in the presence of 0.9 nM [^3H](Des-[…])-Kallidin for 60 minutes at room temperature. After incubation, membranes were filtered and washed five times with modified DPBS buffer (pH=7.4). Samples were scintillation counted to determine the amount of specifically bound to the BKB1 receptor containing membrane. […] BKB1 binding assay, as described in Example 17, was used to test curcumin compound isolated from a Curcuma longa extract (Compound 11), as well as commercially available curcumin purchased from Sigma-Aldrich (C1386). Curcumin was tested at final concentrations ranging from 200 μM to 5 nM. Binding curves were plotted by non-linear regression fit (using GraphPad Prizm software). Ki values were computed using Cheng-Prusoff algorithm. In addition, inhibition of BKB2 receptor binding activity by curcumin was examined with methods similar to those described in Example 17 for the BKB1 receptor with some modifications. […] Composition of Assay Buffer: 24 mM TES, pH 6.8, 1 mM 1.10-Phenanthrioline, 0.3% BSA. • 2. Source of BKb2R: CHO-K1 cells expressing recombinant human BKb2R • 3. Ligand: [^3H]-Bradykinin 0.2 nM. • 4. Incubation time: 90 min RT. • 5. Reading: TopCount.

The test system of experiment [1] is CD-1 mice. As to the kind of experiment: Nociceptive behavior model elicited by intraplantar injection of formalin. The format is in vivo. How it is done:
Mice (n=6 per group) were habituated under inverted Plexiglas observation chamber for 30 minutes to allow them to acclimatize to their surroundings. […] Mice were immediately transferred to their individual observational chamber. […] Mirrors positioned behind the chambers enabled observation of the right hind paw when it was obscured from direct view. […] These behavioral reactions observed for the first five minutes are due to direct action of the irritant on sensory nerve endings where is believed to be as a result of inflammation in the later phase. […] Mice were treated with curcumin (50, 100, 150 or 200 mg/kg) or ibuprofen (200 mg/kg) orally half an hour before intraplantar formalin injection.

In another experiment the target is T2, recombinant human BKb2R (Homo sapiens, UniProt P30411).
T2 construct: expressed in transfected cells; host or cells: CHO-K1
T2 sequence (P30411 1-391): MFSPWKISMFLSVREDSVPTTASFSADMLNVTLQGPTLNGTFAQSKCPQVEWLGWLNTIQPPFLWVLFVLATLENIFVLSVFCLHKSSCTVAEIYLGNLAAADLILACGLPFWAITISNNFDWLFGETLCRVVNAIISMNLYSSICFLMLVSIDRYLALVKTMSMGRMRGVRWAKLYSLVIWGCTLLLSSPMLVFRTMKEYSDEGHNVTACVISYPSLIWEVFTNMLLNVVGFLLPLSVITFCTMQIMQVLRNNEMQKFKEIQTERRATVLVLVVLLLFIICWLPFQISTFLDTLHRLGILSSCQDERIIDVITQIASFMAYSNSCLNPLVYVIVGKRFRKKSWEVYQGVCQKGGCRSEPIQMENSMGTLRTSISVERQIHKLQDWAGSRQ
Nature of the experiment: Bradykinin Radioligand Binding Assay (BKB2). To be noted: manually calculated by Cheng-Prusoff equation; read-out: BKB2 Ki (μg/ml) (converted). How it is done: BKB1 binding assay, as described in Example 17, was used to test curcumin compound isolated from a Curcuma longa extract (Compound 11), as well as commercially available curcumin purchased from Sigma-Aldrich (C1386). Curcumin was tested at final concentrations ranging from 200 μM to 5 nM. Binding curves were plotted by non-linear regression fit (using GraphPad Prizm software). Ki values were computed using Cheng-Prusoff algorithm. In addition, inhibition of BKB2 receptor binding activity by curcumin was examined with methods similar to those described in Example 17 for the BKB1 receptor with some modifications. Bradykinin Radioligand Binding Assay (BKB2) was conducted using a standard assay under the following conditions: • 1. Composition of Assay Buffer: 24 mM TES, pH 6.8, 1 mM 1.10-Phenanthrioline, 0.3% BSA. • 2. Source of BKb2R: CHO-K1 cells expressing recombinant human BKb2R • 3. Ligand: [^3H]-Bradykinin 0.2 nM. • 4. Incubation time: 90 min RT. • 5. Reading: TopCount.
Commercial curcumin (Sigma, C1386) was tested at concentrations ranging from 200 μM to 5 nM. […] Ki was manually calculated by using Cheng-Prusoff equation.

The subject of experiment [2] is CD-1 mice. As to the kind of experiment: Visceral pain perception model (Writhing's test, acetic acid). The format is in vivo. The protocol:
Mice (n=6 per group) were habituated under an inverted Plexiglas observation chamber for 30 minutes to allow them to acclimatize to their surroundings. Animals were orally administered treatment articles at different doses, […], or vehicle control (propylene glycol) 30 minutes before intraperitoneal administration of freshly made acetic acid solution (0.7% in 0.9% NaCl) at 10 ml/kg using a 26 gauge needle. The experiment was carried out at room temperature. After the challenge, each animal was placed back into its own individual section of the observation chamber and the number of constrictions of the abdominal muscle together with stretching was counted cumulatively over a period of 30 minutes (Collier et al., Br. J. Pharmacol. Chemother. 32:295, 1968).

In the next experiment the test system is Lewis rats. As to the kind of experiment: Carrageenan-induced rat paw edema model (paw edema and pain sensitivity). The format is in vivo. The conditions noted are these: for Pain sensitivity, percent change of vehicle / Paw edema, percent change of vehicle: 166 mg/kg oral 1 hr after carrageenan, female Lewis rats. The protocol:
Local inflammation was induced by intraplantar injection of carrageenan λ (Sigma, St. Louis, Mo.; 100 μl of 1% [w/v] in saline) into the plantar surface of right hind paw of sedated rat (with 2.5% isoflurane) at time 0 (T=0) (Gamache et al., J Neurosurg. 65:679, 1986; Guay et al., J. Biol. Chem. 279:24866, 2004; Chou et al., Anesth. Analg. 97:1724, 2003). Rats were acclimated in a procedure room for 20-30 minutes before each measurement was taken. Allodynia was evaluated by measuring responsiveness to the tip of a Randell-Selitto paw pressure test applied perpendicular to the central plantar surface of the right hind paw. A positive response to the applied pressure, noted by sharp withdrawal of the paw, was recorded automatically by an electronic Von Frey Anesthesiometer (2390 series Electrovonfrey, IITC, Woodland Hills, Calif.) (Vivancos et al., Braz. J. Med. Biol. Res. 37:391, 2004). Mechanical allodynia was evaluated before carrageenan inoculation, and thereafter at 1 hr, 2 hr, 4 hr and 6 hr. Paw edema volume was measured with the use of Plethysmometer (IITC, Woodland Hills, Calif.; Model 520) at time 0 (before carrageenan), and then 1 hr, 2 hr, 4 hr, and 6 hr after carrageenan injection. Animals (N=5 per group) were orally gavaged with a positive control ibuprofen (Spectrum Chemical MFG, Gardena, Calif.) (100 or 200 mg/kg); test articles such as: extracts, and combinations of extracts at various doses from 100, 200, 300 to 400 mg/kg and vehicle control (propylene glycol) were given 1 hour after carrageenan inoculation unless specified otherwise.

For experiment [3], the system named is Rabbit cartilage explants. As to the kind of experiment: Ex vivo glycosaminoglycans (GAG) release assay. The format is cell-based. How it is done:
Articular cartilage from hock joints of rabbits (2.5 kg body weight) was removed immediately after each animal was sacrificed and articular cartilage explants were obtained by following the method described by Sandy et al. (Biochem. Biophy Acta 543:36, 1978). Briefly, after the articular surfaces were surgically exposed under sterile conditions, approximately 200-220 mg articular surfaces per joint were dissected and submerged into complete medium (DMEM, supplemented with heat inactivated 5% FBS; penicillin 100 U/ml; streptomycin 100 ug/ml). They were then rinsed several times with the complete medium and incubated for 1 to 2 days at 37° C. in a humidified 5% CO2/95% air incubator for stabilization. The complete medium was replaced with a basal medium (DMEM, supplemented with heat-inactivated 1% FBS, 10 mM HEPES, and penicillin 100 U/ml streptomycin 100 μg/ml). Approximately 30 mg cartilage pieces (2×3×0.35 mm/piece) were placed in 24-well plates and treated with given concentrations of test agents. After pretreatment for 1 h, 5 ng/ml of rhIL-1α was added to the culture medium and further incubated at 37° C. in a humidified 5% CO2/95% air incubator. The culture medium was collected 24 h later and stored at −20° C. until assay.
The amount of sulphated GAGs (e.g., released from proteoglycans) in the medium at the end of the reaction reflects the amount of articular cartilage degradation, which was determined using the commercially available 1,9-dimethy-methylene blue method according to the instructions of the manufacturer (Blyscan™ assay, Accurate Chemical and Scientific Corp., Westbury, N.Y.).

Regarding `COc1cc(/C=C/C(=O)CC(=O)/C=C/c2ccc(O)c(OC)c2)ccc1O` [Curcumin], the “selectivity BKB1 vs BKB2 binding” value at BKB1 receptor is “selective BKB1 antagonist”. Further, the Ki was 5.9 µM on BKB1 receptor (Cheng-Prusoff, read-out: BKB1 Ki (μg/ml) (converted)) and 157 µM at recombinant human BKb2R. The “Pain Sensitivity 20-40 Minutes after Formalin Injection % ↓ vs. Vehicle” value worked out at 53.1% in the experiment on CD-1 mice [1] (50 mg/kg oral), 52.5% in the experiment with CD-1 mice [1] (100 mg/kg oral), 60.3% with CD-1 mice [1] (150 mg/kg oral) and 74.6% with CD-1 mice [1] (200 mg/kg oral).

On to `CC(=O)N[C@H]1C(O)O[C@H](CO)[C@@H](O)[C@@H]1O` (stereo partly shown) [NAG, N-Acetyl Glucosamine], for which the “number of abdominal constrictions / behavioral responses in 30 minutes, Mean ± SD” value with CD-1 mice [2] (300 mg/kg oral) is 91.0 ± 18.7. For the same compound, the “Visceral pain sensitivity, behavioral responses, Mean ± SD” value with CD-1 mice [2] (300 mg/kg oral 30 min before acetic acid i.p., observed 30 minutes, CD-1 mice) was 91.0 ± 18.7. The “Visceral pain sensitivity, % inhibition vs vehicle” value with CD-1 mice [2] (300 mg/kg oral, vs vehicle, CD-1 mice) is reported as 5.4%. In addition, the “Pain sensitivity, percent change of vehicle” value is reported as 8.8% with Lewis rats (1 hr), 3.6% in the experiment with Lewis rats (3 hr) and 2.6% with Lewis rats (5 hr). In addition, the entries for the “Paw edema, percent change of vehicle” value in the experiment with Lewis rats (1 hr), with Lewis rats (3 hr) and in the experiment with Lewis rats (5 hr) were 8.2%, 15.8% and 6.2%, respectively. Besides, the “analgesic and anti-inflammatory activity” value in the experiment with Lewis rats (oral, rosmarinic acid 200 mg/kg, eriocitrin 100 mg/kg, NAG 166 mg/kg) is listed as “minimal to no activity in inhibiting pain or inflammation”. Further, in experiment [3] (Oryctolagus cuniculus, 24 h, 25 μg/ml, rhIL-1α 5 ng/ml (IL-1α alone = 100)), the activity at 25 µg/mL came out at 95.7%. For the same compound, the activity at 50 µg/mL in experiment [3] (Oryctolagus cuniculus, 24 h, 50 μg/ml, rhIL-1α 5 ng/ml (IL-1α alone = 100)) came out at 99.2%. The same compound returned an activity at 100 µg/mL in experiment [3] (Oryctolagus cuniculus, 24 h, 100 μg/ml, rhIL-1α 5 ng/ml (IL-1α alone = 100)) of 87.5%. For the same compound, in experiment [3] (Oryctolagus cuniculus, 24 h, 150 μg/ml, rhIL-1α 5 ng/ml (IL-1α alone = 100)), the activity at 150 µg/mL came to 81.2%. In experiment [3] (rhIL-1α 5 ng/ml), the “protective effect on rhIL-1α-mediated PG degradation / GAG release” value is on record as “marginal”.
